How the values were obtained:
Type in all cases: cell-based
[1] = system: p-p70 S6 Kinase (Thr389) in MCF-7 cells; test: AlphaLISA Ultra pS6K1 assay; details: Homo sapiens, 1.5 h; MCF7 cells, 90 min
Method in brief: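 MCF-7 cells seeded 20–24 h, given fresh medium 2 h, then treated with compounds 90 min (0.5% DMSO final). Cells lysed, lysates frozen at −80 °C, then Thr389-phosphorylated S6K1 detected by AlphaLISA Ultra with acceptor beads 2 h, then donor beads 2 h.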

[2] = system: mTORC1 over mTORC2; test: mTORC1 over mTORC2 selectivity by comparing pS6K1 and pAKT IC50; details: by comparing pS6K1 and pAKT IC50, 90 min
Method in brief: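 MCF-7 cells were treated with compounds (0.5% final DMSO) for 90 minutes in one protocol and 2 hours in the other, then lysed. Phospho-signal in lysates was read by bead-based donor/acceptor proximity assay. pS6K1 and pAKT IC50 values were compared to judge mTORC1 over mTORC2 selectivity, at 90 min and at 24 hrs.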

[3] = system: p-Akt 1/2/3 (Ser473) in MCF-7 cells; test: AlphaLISA Ultra pAKT assay; details: Homo sapiens, 1.5 h; MCF7 cells, 90 min
Method in brief: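 MCF-7 cells (16,000˜20,000 per well in 36 μL medium) were seeded in Corning 3701 plates for 20˜24 hour, refreshed with new medium for 90 minutes, then given 12 μL of 4× compound (0.5% final DMSO). Cells were lysed with 2× lysis buffer, and lysate was analyzed by AlphaLISA Ultra pAKT using acceptor and donor beads, read on an EnSpire reader.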

Row | SMILES | IC50 [1] [nM] | IC50 [3] [nM] | mTORC1 selective @ 90 min [2]
1 | CNCCOCCOC1C[C@@H]2CC[C@@H](C)[C@@](O)(O2)C(=O)C(=O)N2CCCC[C@H]2C(=O)O[C@H]([C@H](C)C[C@@H]2CC[C@@H](OC)[C@H](OC)C2)CC(=O)[C@H](C)/C=C(\C)[C@@H](OC)[C@@H](OC)C(=O)[C@H](C)C[C@H](C)/C=C/C=C/C=C/1C (stereo partly drawn) [I-90, (24E,26E,28E,29E,35R,36S,37R,38R,40S,42S,45S,46R,47R,56R)-45-[(1R)-2-[(1S,3R,4R)-3,4-dimethoxycyclohexyl]-1-methyl-ethyl]-56-hydroxy-46,47-dimethoxy-35,36,37,38,48,49-hexamethyl-44-[2-[2-(methylamino)ethoxy]ethoxy]-65,66-dioxa-58-azatricyclohexatriaconta-24,26,28(48),29(49)-tetraene-50,51,52,53,54-pentone] | 10 to 100 | ≥ 1000 | Yes
2 | COCCO[C@@H]1CC[C@@H](C[C@@H](C)[C@@H]2CC(=O)[C@H](C)/C=C(\C)[C@@H](OC)[C@@H](OC)C(=O)[C@H](C)C[C@H](C)/C=C/C=C/C=C(\C)C(OCCOC3COC3)C[C@@H]3CC[C@@H](C)[C@@](O)(O3)C(=O)C(=O)N3CCCC[C@H]3C(=O)O2)C[C@H]1OC (stereo partly drawn) [I-94, (25E,27E,29E,30E,36R,37S,38R,39R,41S,43S,46S,48R,49R,58R)-58-hydroxy-48,49-dimethoxy-46-[(1R)-2-[(1S,3R,4R)-3-methoxy-4-(2-methoxyethoxy)cyclohexyl]-1-methyl-ethyl]-36,37,38,39,50,51-hexamethyl-45-[2-(oxetan-3-yloxy)ethoxy]-67,68-dioxa-59-azatricyclohexatriaconta-25,27,29(50),30(51)-tetraene-52,53,54,55,56-pentone] | 10 to 100 | ≥ 1000 | Yes
3 | COCCS(=O)(=O)CCO[C@@H]1C[C@@H]2CC[C@@H](C)[C@@](O)(O2)C(=O)C(=O)N2CCCC[C@H]2C(=O)O[C@H]([C@H](C)C[C@@H]2CC[C@@H](OC)[C@H](OC)C2)CC(=O)[C@H](C)/C=C(\C)[C@@H](OC)[C@@H](OC)C(=O)[C@H](C)C[C@H](C)/C=C/C=C/C=C/1C [I-42, (24E,26E,28E,29E,35R,36S,37R,38R,40S,42S,44R,45S,46R,47R,56R)-45-[(1R)-2-[(1S,3R,4R)-3,4-dimethoxycyclohexyl]-1-methyl-ethyl]-56-hydroxy-46,47-dimethoxy-44-[2-(2-methoxyethylsulfonyl)ethoxy]-35,36,37,38,48,49-hexamethyl-66,67-dioxa-57-azatricyclohexatriaconta-24,26,28(48),29(49)-tetraene-50,51,52,53,54-pentone] | 10 to 100 | ≥ 1000 | Yes
4 | COCCOCCO[C@@H]1C[C@@H]2CC[C@@H](C)[C@@](O)(O2)C(=O)C(=O)N2CCCC[C@H]2C(=O)O[C@H]([C@H](C)C[C@@H]2CC[C@@H](OC)[C@H](OC)C2)CC(=O)[C@H](C)/C=C(\C)[C@@H](OC)[C@@H](OC)C(=O)[C@H](C)C[C@H](C)/C=C/C=C/C=C/1C [I-30, (24E,26E,28E,29E,35R,36S,37R,38R,40S,42S,44R,45S,46R,47R,56R)-45-[(1R)-2-[(1S,3R,4R)-3,4-dimethoxycyclohexyl]-1-methyl-ethyl]-56-hydroxy-46,47-dimethoxy-44-[2-(2-methoxyethoxy)ethoxy]-35,36,37,38,48,49-hexamethyl-64,65-dioxa-57-azatricyclohexatriaconta-24,26,28(48),29(49)-tetraene-50,51,52,53,54-pentone] | 10 to 100 | ≥ 1000 | Yes
5 | CO[C@@H]1/C(C)=C/[C@@H](C)C(=O)C[C@@H]([C@H](C)C[C@@H]2CC[C@@H](OC)[C@H](OC)C2)OC(=O)[C@@H]2CCCCN2C(=O)C(=O)[C@]2(O)O[C@@H](CC[C@H]2C)CC(OCCOCCN(C)C)/C(C)=C/C=C/C=C/[C@@H](C)C[C@@H](C)C(=O)[C@@H]1OC (stereo partly drawn) [I-95, (25E,27E,29E,30E,36R,37S,38R,39R,41S,43S,46S,47R,48R,57R)-46-[(1R)-2-[(1S,3R,4R)-3,4-dimethoxycyclohexyl]-1-methyl-ethyl]-45-[2-[2-(dimethylamino)ethoxy]ethoxy]-57-hydroxy-47,48-dimethoxy-36,37,38,39,49,50-hexamethyl-66,67-dioxa-58-azatricyclohexatriaconta-25,27,29(49),30(50)-tetraene-51,52,53,54,55-pentone] | 100 to 1000 | ≥ 1000 | Yes

More lines, main results first:

Row | IC50 [1] [nM] | IC50 [3] [nM] | SMILES | mTORC1 selective @ 90 min [2]
6 | 10 to 100 | ≥ 1000 | CO[C@@H]1C[C@H](C[C@@H](C)[C@@H]2CC(=O)[C@H](C)/C=C(\C)[C@@H](O)[C@@H](OC)C(=O)[C@H](C)C[C@H](C)/C=C/C=C/C=C(\C)[C@H](OCCOC3COC3)C[C@@H]3CC[C@@H](C)[C@@](O)(O3)C(=O)C(=O)N3CCCC[C@H]3C(=O)O2)CC[C@H]1OC(F)F [I-104, (23E,25E,27E,28E,32R,33S,34R,35R,37S,39S,41R,42S,44R,45R,55R)-42-[(1R)-2-[(1S,3R,4R)-4-(difluoromethoxy)-3-methoxy-cyclohexyl]-1-methyl-ethyl]-44,55-dihydroxy-45-methoxy-32,33,34,35,46,47-hexamethyl-41-[2-(oxetan-3-yloxy)ethoxy]-65,66-dioxa-56-azatricyclohexatriaconta-23,25,27(46),28(47)-tetraene-48,49,50,51,52-pentone] | Yes
7 | ≥ 1000 | ≥ 1000 | CO[C@@H]1/C(C)=C/[C@@H](C)C(=O)C[C@@H]([C@H](C)C[C@@H]2CC[C@@H](O)[C@H](OC)C2)OC(=O)[C@@H]2CCCCN2C(=O)C(=O)[C@]2(O)O[C@@H](CC[C@H]2C)C[C@@H](OCCOC2COC2)/C(C)=C/C=C/C=C/[C@@H](C)C[C@@H](C)C(=O)[C@@H]1OC [I-96] | No
8 | 10 to 100 | ≥ 1000 | COCCOCCO[C@@H]1C[C@@H]2CC[C@@H](C)[C@@](O)(O2)C(=O)C(=O)N2CCCC[C@H]2C(=O)O[C@H]([C@H](C)C[C@@H]2CC[C@@H](OC(F)F)[C@H](OC)C2)CC(=O)[C@H](C)/C=C(\C)[C@@H](O)[C@@H](OC)C(=O)[C@H](C)C[C@H](C)/C=C/C=C/C=C/1C [I-5, (22E,24E,26E,27E,33R,34S,35R,36R,38S,40S,42R,43S,44R,45R,55R)-43-[(1R)-2-[(1S,3R,4R)-4-(difluoromethoxy)-3-methoxy-cyclohexyl]-1-methyl-ethyl]-44,55-dihydroxy-45-methoxy-42-[2-(2-methoxyethoxy)ethoxy]-33,34,35,36,46,47-hexamethyl-64,65-dioxa-56-azatricyclohexatriaconta-22,24,26(46),27(47)-tetraene-48,49,50,51,52-pentone] | Yes
9 | 10 to 100 | ≥ 1000 | CO[C@@H]1C[C@H](C[C@@H](C)[C@@H]2CC(=O)[C@H](C)/C=C(\C)[C@@H](O)[C@@H](OC)C(=O)[C@H](C)C[C@H](C)/C=C/C=C/C=C(\C)C(OCC3COCCO3)C[C@@H]3CC[C@@H](C)[C@@](O)(O3)C(=O)C(=O)N3CCCC[C@H]3C(=O)O2)CC[C@H]1OC(F)F (stereo partly drawn) [I-6, (24E,26E,28E,29E,32R,33S,34R,35R,37S,39S,42S,44R,45R,55R)-42-[(1R)-2-[(1S,3R,4R)-4-(difluoromethoxy)-3-methoxy-cyclohexyl]-1-methyl-ethyl]-41-(1,4-dioxan-2-ylmethoxy)-44,55-dihydroxy-45-methoxy-32,33,34,35,46,47-hexamethyl-66,67-dioxa-56-azatricyclohexatriaconta-24,26,28(46),29(47)-tetraene-48,49,50,51,52-pentone] | Yes
